Source: US20060269631A1, “Morinda citrifolia-based formulation for inhibiting metastasis of carcinogenic cells” (priority 2003, published 2006)
Where “and” joins values, the source holds several entries; their conditions need not be identical. Identical values can stand only once. Marks after values point to notes of the source that are not given here.

What was measured:
L-1 sarcoma cells = conditions: in vivo; cited from earlier work
Lu-ECAM-1 = conditions: among a series of carbohydrates; cited from earlier work
[1] = tested on: NRK 2 cells, fibronectin-coated well; assay: adhesion of NRK 2 cells to a fibronectin-coated well; assay type: cell-based, rat
Procedure: One assay measured the adhesion of NRK 2 (normal rat kidney cell, ATCC CRL-6509) cells to a fibronectin-coated well. Morinda citrifolia-PPT, the 0.1 N NaCl Morinda citrifolia-PPT fraction, GRGDSP peptide (SIGMA), and 0.4% DMSO (SIGMA, vehicle control) in modified MEM-HEPES buffer pH 7.4 (Hyclone) were incubated in separate wells for 30 minutes at 37° C. The reaction was initiated by addition of NRK 2 cells (2×10^6/ml) and run for 30 minutes. Each well was then washed 6 times with Dulbecco's PBS (Hyclone) followed by addition of 5 μM calcein AM (SIGMA) and a further 2 hour incubation period. Quantitation of fluorescent intensity, resulting from interaction of calcein AM with cells attached to the fibronectin coated plate, was read by a SpectrFluor Plus plate reader (AG Flwith excitation at 485 nm and emission at 535 nm.
Relating to Table 3, NRK 2 cells were used to adhere to fibronectin-coated wells. Quantitation of fluorescent intensity resulting from interaction of calcein AM with cells attached to the fibronectin coated plate was read by a SpectrFluor Plus plate reader.

[2] = tested on: B16-F0 murine melanoma cells; assay: in vivo metastasis test, syngeneic tumor metastasis model of melanoma B16-F0 cells in C57BL/6J mice; conditions: for % Inhibition: vs vehicle control
Procedure: An in vivo metastasis test was performed, wherein groups of 6 (positive control), 6 (Morinda citrifolia-PPT test group), and 9 (vehicle control) immunocompetent (6-8 weeks old), pathogen-free (SPF) C57BL/6 male mice were used in this study and bred in animal isolator (IVC racks) under specific pathogens free (SPF) condition at 23±1° C. Viable B16F0 murine melanoma cells (ATCC CRL-6322, 6×10^4 in 0.2 mL) were inoculated into experimental mice intravenously, via tail vein. Mice were administered the Morinda citrifolia-PPT, 1% in drinking water ad libitum, for one week prior to tumor cell implantation and three weeks afterwards. Additionally, 0.8 mg Morinda citrifolia-PPT/mouse was injected intraperitoneally (IP) for 21 consecutive days following tumor cell implantation. Concurrently, the reference agent, mitomycin, was administrated IP at 1 mg/Kg twice per week for six doses after tumor cell implantation.
(§1) In the vehicle control group, the distilled water was administrated at 10 ml/Kg IP for three consecutive weeks. The body weight for all mice was recorded at day 1, day 8, day 15, and day 22 following tumor cell implantation. The lungs were excised and fixed 21 days after tumor inoculation. Metastatic nodules on the lung surface were then counted under a dissecting microscope. The student's t test was used to determine the statistical difference between the groups of treatment and vehicle control groups in a statistic analysis.
Relating to the Table 1 above, viable B16-F0 murine melanoma cells were inoculated into C57B1/6J mice. Mice were administered ad libitum 1% Morinda citrifolia-PPT one week prior to the implantation and throughout the experiment. […] distilled water (vehicle control), 0.8 mg/m and 4 mg/mouse of Morinda citrifolia-PPT were injected I.P. into mice for 21 consecutive days following the inoculation. Mitomycin was used as a positive control and injected twice a week at 1 mg/Kg for a total of six doses. The lungs were excised and fixed at the end of experiment and the metastasis nodules on the lung surface were counted under a dissecting microscope. The test was used to determine the significant difference between the groups of treatment and vehicle control. (SEM=standard error of mean; ^b p<0.006; ^c p<0.005.)
In the syngeneic tumor metastasis model of melanoma B16-F0 cells in C57BL/6J mice, MDA-4 was administered at 1% (10 mg/ml) by a drinking method for one week for pre-treatment, and for three weeks after the tumor cells were implanted, during the study and throughout the experiment for a total of 28 treatments. Additionally, MDA-4 at a dose of 0.8 mg/mouse was administered intraperitoneally (IP) daily for a total of 21 consecutive days after tumor cells were implanted in the mice.
During the experiment, the test substance MDA-4 was provided by Morinda, Inc. and used for in vivo anti-metastasis studies. MDA-4 was dissolved in sterile distilled water and, as stated, administrated with 1% (10 mg/ml) drinking method for one week pre-treatment, and three week after tumor cells were implanted during the study throughout the experiment for a total of 28 treatments. Additionally, as stated, MDA-4 at dose of 0.8 mg/mouse was administrated intraperitoneally (IP) daily for a total of 21 consecutive days after tumor cells implanted.
The murine melanoma cell line, B16-F0 (ATCC CRL-6322), was purchased from American Type Culture Collection and Dulbecco's Modified Eale's medium, 90% with Fetal Bovine Serum, 10% was used as culture medium. The tumor cells were incubated in an atmosphere containing 5% CO2 at 37° C. The medium was supplemented with 1% Antibiotic-Antimycotic.
Specific pathogen-free male C57BL/6J mice at 6-8 weeks of age, weighing 24-28 gms were provided by National Taiwan University Animal Center. The animals were housed in Individually Ventilated Cages Racks (IVC Racks, 36 Mini Isolator System) under Specific Pathogen-Free (SPF) conditions throughout the experiment. […]

[3] = body weight post-implantation and toxic symptoms in the metastasis study; assay type: in vivo, mice
Procedure: as §1

[4] = individual mouse, R = diameter of nodule

Compound: O=C[C@H](O)[C@@H](O)[C@@H](O)[C@H](O)CO [D-galactose]
- inhibition of liver metastasis (L-1 sarcoma cells): inhibit

Compound: CC(=O)NC1C(OC2C(O)C(CO)OC(OC3C(CO)OC(O)C(O)C3O)C2O)OC(CO)C(O)C1OC1OC(CO)C(O)C(O)C1OC1OC(C)C(O)C(O)C1O (stereo not shown) [Lacto-N-fucopentose I]
- blocking of adhesion of B16-F10 to Lu-ECAM-1 (Lu-ECAM-1): most effectively blocked adhesion

Compound: GRGDSP peptide
- Percentage adhesion inhibition, fibronectin mediated ([1]; Conc. 31.25 μg/ml): 16
- Percentage adhesion inhibition, fibronectin mediated ([1]; Conc. 62.5 μg/ml): 22
- Percentage adhesion inhibition, fibronectin mediated ([1]; Conc. 125 μg/ml): 43
- Percentage adhesion inhibition, fibronectin mediated ([1]; Conc. 250 μg/ml): 78
- Percentage adhesion inhibition, fibronectin mediated ([1]; Conc. 500 μg/ml): 98

Compound: CO[C@@]12[C@H](COC(N)=O)C3=C(C(=O)C(C)=C(N)C3=O)N1C[C@@H]1N[C@@H]12 [Mitomycin]
- metastasis inhibition ([2]; PPT at 0.8 mg/mouse combined with free drinking, mitomycin at 1 mg/Kg): 55%
- % Inhibition ([2]; Table 1, PPT 0.8 mg/mouse, mitomycin 1 mg/Kg): 60%^c
- No. of Metastastic Nodules in the Lung ([2]; Table 4, mean ± SEM, MDA-4 drinking 1% x28 & IP 0.8 mg/mouse x21, mitomycin IP 1 mg/kg x6): 22 ± 2
- % Inh. ([2]; Table 4, vs vehicle, MDA-4 drinking 1% x28 & IP 0.8 mg/mouse x21, mitomycin IP 1 mg/kg x6): 55%
- No. of Metastastic Nodules in the Lung, Total Nodules, X ± SEM ([2]; Table 5, group mean): 22 ± 2
- No. of Metastastic Nodules in the Lung, Total Nodules ([2]; Table 5, individual mouse): 23 and 24 and 19
- % Inhibition ([2]; Table 5, MDA-4 drinking 1% x28 & IP 0.8 mg/mouse x21, mitomycin IP 1 mg/kg x6): 55%
- No. of Metastastic Nodules in the Lung, 1 mm< [2, 4]: 6 and 7 and 4
- No. of Metastastic Nodules in the Lung, R < 1 mm [2, 4]: 16 and 17 and 15
- No. of Metastastic Nodules in the Lung, R > 2 mm [2, 4]: 1 and 0 (2×)
- No. of Metastasis Nodules in the Lung ([2]; individual mouse, lungs excised 21 days after inoculation, PPT 0.8 mg/mouse IP x21 + 1% in drinking water, mitomycin 1 mg/Kg IP x6): 23 and 24 and 19
- Body Weight of Post-Implantation, Day 1, Mean ± SEM ([3]; group mean): 27.7 ± 0.9 g
- Body Weight of Post-Implantation, Day 8, Mean ± SEM ([3]; group mean): 28.0 ± 0.6 g
- Body Weight of Post-Implantation, Day 15, Mean ± SEM ([3]; group mean): 27.3 ± 0.9 g
- Body Weight of Post-Implantation, Day 22, Mean ± SEM ([3]; group mean): 27.3 ± 0.9 g
- body weight change compared to the vehicle control group ([3]; in words): no body weight increase
- Body Weight of Post-Implantation, Day 1 ([3]; individual mouse): 28 g and 29 g and 26 g
- Body Weight of Post-Implantation, Day 8 ([3]; individual mouse): 28 g and 29 g and 27 g
- Body Weight of Post-Implantation, Day 15 ([3]; individual mouse): 27 g and 29 g and 26 g
- Body Weight of Post-Implantation, Day 22 ([3]; individual mouse): 27 g and 29 g and 26 g

Compound: arabinogalctose
- inhibition of liver metastasis (L-1 sarcoma cells): inhibit
